Assay results reported in patent USRE37556E1, “Superoxide radical inhibitor” (Otsuka Pharmaceutical Co., Ltd., priority 1990, dated 2002).

Compound	melting point
COc1ccc(-c2nc(-c3cc(N)cc(N)c3)cs2)cc1OC.Cl.Cl	198 to 200 °C
CCOc1ccc(-c2nc(-c3ccc(O)c(CC)c3)c(CN(C)C)s2)cc1OCC.Cl.Cl	163 to 168 °C
CCOc1ccc(-c2nc(-c3ccc(O[Si](C)(C)C(C)(C)C)c(CO)c3)cs2)cc1OCC	101.3 to 103 °C
COc1ccc(-c2nc(-c3ccc(O)c(O)c3)cs2)cc1OC.Cl [Example 1, 2-(3,4-dimethoxyphenyl)-4-(3,4-dihydroxyphenyl) thiazole hydrochloride]	146 to 148 °C
COc1ccc(-c2nc(-c3ccc4c(c3)CCC(=O)N4)co2)cc1OC [Example 137, 2-(3,4-dimethoxyphenyl)-4-(3,4-dihydrocarbostyril-6-yl) oxazole]	191 to 192 °C
[O-][n+]1cccc(-c2nc(-c3ccccc3)cs2)c1 [Example 139, 3-(4-phenylthiazol-2-yl) pyridine-N-oxide]	140 to 141 °C
O=c1[nH]cccc1-c1nc(-c2ccccc2)cs1 [Example 140, 2-(2-oxopyridin-3-yl)4-phenylthiazole]	206 to 207 °C (dec.)
COc1ccc(-c2nc(-c3ccc4c(c3)N(C)C(=O)CS4)cs2)cc1OC [Example 143, 2-(3,4-dimethoxyphenyl)-4-(4-methyl-2H-1,4-benzothiazin-3(4H)-one-6-yl)thiazole]	143.5 to 144 °C
COc1ccc(-c2nc(-c3ccc4c(c3)CCCN4C(=O)c3ccccc3)cs2)cc1OC [Example 144, 2-(3,4-dimethoxyphenyl)-4-(1-benzoyl-1,2,3,4-tetrahydroquinolin-6-yl)thiazole]	152.5 to 153.5 °C
COc1ccc(-c2nc(-c3ccc4oc(=O)[nH]c4c3)cs2)cc1OC [Example 145, 2-(3,4-dimethoxyphenyl)-4-(benzoxazol-2-on-5-yl) thiazole]	271 to 272 °C
O=C1CCc2cc(-c3csc(-c4ccc(C(=O)O)cc4)n3)ccc2N1 [Example 147, 2-(4-carboxyphenyl)-4-(3,4-dihydrocarbostyril-6-yl)thiazole]	≥ 300 °C
NC(=O)c1ccc(-c2nc(-c3ccc4c(c3)CCC(=O)N4)cs2)cc1 [Example 148, 2-(4-carbamoylphenyl)-4-(3,4-dihydrocarbostyril-6-yl)thiazole]	≥ 300 °C
COc1cc(-c2nc(-c3ccc4c(c3)CCC(=O)N4)cs2)ccc1[S+](C)[O-] (centres unmarked) [Example 149, 2-(3-methoxy-4-methylsulfinylphenyl)-4-(3,4-dihydrocarbostyril-6-yl)thiazole]	264 to 265 °C
COc1cc(-c2nc(-c3ccc4c(c3)CCC(=O)N4)cs2)ccc1S(C)(=O)=O [Example 150, 2-(3-methoxy-4-methylsulfonylphenyl)-4-(3,4-dihydrocarbostyril-6-yl)thiazole]	284 to 286 °C
COc1ccc(C(O)c2nc(-c3ccc4[nH]c(=O)c(O)c(O)c4c3)cs2)cc1OC (centres unmarked) [Example 151, 2-[1-(3,4-dimethoxyphenyl)-1-hydroxymethyl]-4-(3,4-dihydroxycarbostyril-6-yl)thiazole]	188 to 189 °C
COc1ccc(C(=O)c2nc(-c3ccc4[nH]c(=O)c(O)c(O)c4c3)cs2)cc1OC [Example 152, 2-(3,4-dimethoxybenzoyl)-4-(3,4-dihydroxycarbostyril-6-yl) thiazole]	249 to 251 °C
CCOc1ccc(-c2nc(-c3ccc(O[C@@H]4O[C@H](CO)[C@@H](O)[C@H](O)[C@H]4O)cc3)cs2)cc1OCC [Example 237, 4-[4-(β-D-glucopyranosyloxy)-phenyl]-2-(3,4-diethoxyphenyl)thiazole]	138 to 140 °C
COc1ccc(-c2nc(-c3ccc(OS(=O)(=O)O)cc3)cs2)cc1OC [Example 238, 4-(4-hydroxysulfonyloxyphenyl)-2-(3,4-dimethoxyphenyl)thiazole]	248 to 249 °C
CCOc1ccc(-c2nc(-c3ccc(N4CCOCC4)c([N+](=O)[O-])c3)cs2)cc1OCC [Example 242, 4-(4-morpholino-3-nitrophenyl)-2-(-3,4-diethoxyphenyl) thiazole]	119 to 120 °C

Compound	melting point
CCOc1ccc(C(=O)c2csc(-c3ccc(OCC)c(OCC)c3)n2)cc1OCC [Example 246, 2-(3,4-diethoxyphenyl)-4-(3,4-diethoxybenzoyl)thiazole]	128 to 129 °C
CCOc1ccc(-c2nc(C=Cc3ccccc3)cs2)cc1OCC [Example 247, 2-(3,4-diethoxyphenyl)-4-styrylthiazole]	94 to 95 °C
C=CCc1cc(-c2csc(-c3ccc(OCC)c(OCC)c3)n2)cc(C(=O)OC)c1O [Example 353, 2-(3,4-diethoxyphenyl)-4-(3-methoxycarbonyl-4-hydroxy-5-allylphenyl)thiazole]	118 to 119 °C
CCOc1ccc(-c2nc(-c3ccc(SC(=O)N(C)C)c(C(=O)OC)c3)cs2)cc1OCC [Example 354, 2-(3,4-diethoxyphenyl)-4-(4-dimethylaminocarbonylthio-3-methoxycarbonylphenyl)thiazole]	108 to 109 °C
CCOc1ccc(-c2nc(-c3ccc(S)cc3C(=O)O)cs2)cc1OCC [Example 355, 2-(3,4-diethoxyphenyl)-4-(4-mercapto-2-carboxyphenyl)-thiazole]	283 to 285 °C
CCOc1ccc(-c2nc(-c3cc(CCO)c(O)c(C(=O)OC)c3)cs2)cc1OCC [Example 358, 2-(3,4-diethoxyphenyl)-4-[3-methoxycarbonyl-4-hydroxy-5-(2-hydroxyethyl)phenyl]-thiazole]	113 to 114 °C
CCOc1ccc(-c2nc(-c3ccc(N)c(C(=O)O)c3)cs2)cc1OCC [Example 359, 2-(3,4-diethoxyphenyl)-4-(3-carboxy-4-aminophenyl)thiazole]	228 to 229 °C
CCOc1ccc(-c2nc(-c3cc(C(=O)O)c(O)cc3O)cs2)cc1OCC [Example 360, 2-(3,4-diethoxyphenyl)-4-(3-carboxy-4,6-dihydroxyphenyl)thiazole]	233 to 234 °C
CCOc1ccc(-c2nc(-c3cccc(C(=O)O)c3)cs2)cc1OCC [Example 362, 2-(3,4-diethoxyphenyl)-4-(3-carboxyphenyl)thiazole]	192 to 192.8 °C
CCCc1cc(-c2csc(-c3ccc(OCC)c(OCC)c3)n2)cc(C(=O)O)c1O [Example 363, 2-(3,4-diethoxyphenyl)-4-(3-carboxy-4-hydroxy-5-propylphenyl)thiazole]	179 to 180 °C
CCOc1ccc(-c2nc(-c3ccc(OC(C)=O)c(C(=O)O)c3)cs2)cc1OCC [Example 364, 2-(3,4-diethoxyphenyl)-4-(3-carboxy-4-acetyloxyphenyl)thiazole]	178 to 179 °C
CCOc1ccc(-c2nc(-c3cccc(CO)n3)cs2)cc1OCC [Example 454, 2-(3,4-diethoxyphenyl)-4-(2-hydroxymethyl-6-pyridyl)thiazole]	109 to 113 °C
CCOc1ccc(-c2nc(-c3ccc(OS(=O)(=O)C(F)(F)F)c(C(=O)OC)c3)cs2)cc1OCC [Example 457, 2-(3,4-diethoxyphenyl)-4-(3-methoxycarbonyl-4-trifluoromethanesulfonyloxyphenyl) thiazole]	112 to 113 °C
CCOc1ccc(-c2nc(Cn3cccc3C(C)=O)cs2)cc1OCC [Example 459, 2-(3,4-diethoxyphenyl)-4-(2-acetyl-1-pyrrolyl)methylthiazole]	123 to 124 °C
CCCCCCCCCOC(=O)c1cc(-c2csc(-c3ccc(OCC)c(OCC)c3)n2)ccc1O [Example 461, 2-(3,4-diethoxyphenyl)-4-(3-nonyloxycarbonyl-4-hydroxyphenyl)thiazole]	67 to 68 °C
CCOc1ccc(-c2nc(-c3cc4c(c(C(=O)O)c3)OC(C)(C)C4)cs2)cc1OCC [Example 465, 2-(3,4-diethoxyphenyl)-4-(2,2-dimethyl-7-carboxy-2,3-dihydrobenzofuran-5-yl)thiazole]	106 to 107 °C
CCOC(=O)C=Cc1cc(-c2csc(-c3ccc(OCC)c(OCC)c3)n2)cc(C(=O)OCOC)c1OCOC [Example 512, 2-(3,4-diethoxyphenyl)-4-[3-methoxymethoxycarbonyl-4-methoxymethoxy-5-(2-ethoxycarbonylvinyl)phenyl]thiazole]	94 to 96 °C
CCOc1ccc(-c2nc(-c3cc(C=CC(=O)O)c(O)c(C(=O)O)c3)cs2)cc1OCC [Example 514, 2-(3,4-diethoxyphenyl)-4-[3-carboxy-4-hydroxy-5-(2-carboxyvinyl)phenyl] thiazole]	260 to 261 °C
CCOc1ccc(-c2nc(-c3cc(C(=O)O)ccn3)cs2)cc1OCC [Example 516, 2(3,4-diethoxyphenyl)-4-(4-carboxy-2-pyridyl)thiazole]	236.2 to 237.2 °C
